Values quoted from earlier work, collected in the PKSmart pharmacokinetics tables (Seal et al. 2025).

Assay: Lombardo, Berellini, Obach 2018, Drug Metab Dispos 46:1466, doi 10.1124/dmd.118.082966
Conditions: human; for MRT / Vd / clearance / half-life: in vivo, iv; for fraction unbound: plasma

| SMILES | MRT | Vd | clearance | half-life | fraction unbound |
| --- | --- | --- | --- | --- | --- |
| C=C1C=CC=C(C)[C@H](O)[C@@H](C)[C@@H](O)[C@@H](C)[C@H](OC(C)=O)[C@H](C)[C@@H](OC)/C=C/O[C@@]2(C)Oc3c(C)c(O)c4c(O)c(c5c(c4c3C2=O)NC2(CCN(CC(C)C)CC2)N5)NC1=O | 65 h | 9.3 L/kg | 2.4 mL/min/kg | 37 h |  |
| Nc1ccncc1 | 4.7 h | 2.6 L/kg | 9.3 mL/min/kg | 3.6 h | 1 |
| CCON=C(C(=O)NC1C(=O)N2C(C(=O)[O-])=C(Sc3nc(-c4cc[n+](C)cc4)cs3)CS[C@H]12)c1nsc(NP(=O)(O)O)n1 (some centres not stated) | 0.11 h | 0.53 L/kg | 83.6 mL/min/kg | 0.09 h | 0.8 |
| N#Cc1c(N2C[C@@H]3NCCO[C@H]3C2)c(F)cc2c(=O)c(C(=O)O)cn(C3CC3)c12 | 4.11 h | 1.42 L/kg | 5.75 mL/min/kg | 13.4 h | 0.75 |
| Cc1ncc(CO)c(CO)c1O | 1.38 h | 0.66 L/kg | 7.9 mL/min/kg | 0.98 h |  |
| C[C@@H](Oc1cc(-c2cnn(C3CCNCC3)c2)cnc1N)c1c(Cl)ccc(F)c1Cl |  |  |  |  | 0.09 |
| CN(C)CCO[C@]1(c2ccccc2)C[C@H]2CC[C@]1(C)C2(C)C | 26.6 h | 7.7 L/kg | 4.88 mL/min/kg | 26.6 h | 0.05 |
| CCC1C(=O)N(C)c2cnc(Nc3ccc(C(=O)NC4CCN(C)CC4)cc3OC)nc2N1C1CCCC1 (configuration not stated) | 31.3 h | 31.2 L/kg | 17.1 mL/min/kg | 40.1 h |  |
| CN1C[C@@H]2c3ccccc3Oc3ccc(Cl)cc3[C@H]2C1 | 30.9 h | 23 L/kg | 12.4 mL/min/kg |  |  |
| CC(C)=CCN1CC[C@]2(C)c3cc(O)ccc3C[C@H]1C2C (some centres not stated) |  |  |  |  | 0.39 |
| CN(C)C/C=C(\c1ccc(Br)cc1)c1cccnc1 | 8.22 h | 6.8 L/kg | 13.8 mL/min/kg | 6.26 h | 0.086 |
| CCCN(CCc1cccs1)[C@H]1CCc2c(O)cccc2C1 | 2.6 h | 5.7 L/kg | 37 mL/min/kg | 4 h | 0.08 |
| C[C@@H](c1cccnc1F)c1c(CCN(C)C)sc2ccccc12 | 10 h | 5.73 L/kg | 10.4 mL/min/kg | 15 h |  |
| CCCCc1nc(Cl)c(CO)n1Cc1ccc(-c2ccccc2-c2nnn[nH]2)cc1 | 0.75 h | 0.37 L/kg | 8.2 mL/min/kg | 1.8 h |  |
| Cc1cc(O)c2c(=O)c3c(O)cc(O)c4c5c(O)cc(O)c6c(=O)c7c(O)cc(C)c8c1c2c(c34)c(c78)c65 | 32 h | 0.25 L/kg | 0.13 mL/min/kg | 42 h |  |
| CCNC(=O)OC1CCN(c2nncc3cc(OC)c(OC)cc23)CC1 | 0.25 h | 0.67 L/kg |  |  | 0.08 |
| COc1cccc2c1C(=O)c1c(O)c3c(c(O)c1C2=O)C[C@@](O)(C(=O)CO)C[C@@H]3O[C@H]1C[C@H](N2CCO[C@H](OC)C2)[C@H](O)[C@H](C)O1 | 53.3 h | 49 L/kg | 15.3 mL/min/kg | 49.2 h |  |
| CC(C)(C)NC[C@H](O)COc1nsnc1N1CCOCC1 | 3 h | 1.5 L/kg | 8.5 mL/min/kg | 2.2 h |  |
| CS(=O)(=O)c1ccc(C(=O)Nc2ccc(Cl)c(-c3ccccn3)c2)c(Cl)c1 | 341 h |  | 0.01 mL/min/kg | 245 h |  |
| O=C(O[C@H]1CC2CC[C@@H](C1)[N+]21CCCC1)C(O)(c1ccccc1)c1ccccc1 | 6.1 h | 5.1 L/kg | 13.9 mL/min/kg | 5 h | 0.33 |
| O=C(O)CCCCN(CCc1ccccc1OCc1ccc(CCc2ccccc2)cc1)Cc1ccc(C(=O)O)cc1 | 0.44 h | 0.24 L/kg | 9 mL/min/kg | 0.25 h |  |
| O=NNc1cnccn1 | 0.29 h | 0.31 L/kg | 15.1 mL/min/kg | 0.38 h |  |
| CC(=O)N(CC[C@@](CCN1CCCCC1)(C(N)=O)c1ccccc1Cl)C(C)C | 7.9 h | 2.6 L/kg | 5.43 mL/min/kg | 12 h |  |
| CCCc1nc(C(C)(C)O)c(C(=O)O)n1Cc1ccc(-c2ccccc2-c2nnn[nH]2)cc1 |  |  | 0.29 mL/min/kg | 10.8 h |  |
| CN[C@@H]1[C@@H](O)[C@@H](O[C@@H]2[C@@H](O)[C@H](O[C@H]3O[C@H](CN)[C@@H](O)[C@H](O)[C@H]3O)[C@@H](N)C[C@H]2NC(=O)C(O)CN)OC[C@]1(C)O (some centres not stated) | 4.1 h |  | 1.3 mL/min/kg | 24 h | 0.95 |
| CCCCCc1cc(O)c2c(c1)OC(C)(C)c1ccc(C)cc1-2 | 15.9 h | 17 L/kg | 17.9 mL/min/kg | 25.5 h |  |
| C[C@@H]1C[C@H]2C3C[C@H](F)C4=CC(=O)C=C[C@]4(C)[C@@]3(F)[C@@H](O)C[C@]2(C)[C@@]1(OC(=O)c1ccco1)C(=O)SCF (some centres not stated) |  | 4.95 L/kg | 13.4 mL/min/kg | 10.6 h |  |
| COc1ccc(/C=C\c2cc(OC)c(OC)c(OC)c2)cc1NC(=O)C(N)CO (configuration not stated) | 0.32 h | 0.44 L/kg | 22.6 mL/min/kg | 0.26 h |  |
